# According to PubChem BioAssay (NCI):
#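 Assay format: 96-well plates, 48-hour exposure. Definition used: TGI = concentration required for complete inhibition of growth.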
# Legend:
# Assay in all cases: inhibition of tumour cell growth, NCI panel, 48 h
# [1] = test system: ACHN renal
# [2] = test system: SR leukemia
# [3] = test system: SK-OV-3 ovarian
# [4] = test system: OVCAR-5 ovarian
# [5] = test system: MALME-3M melanoma
# [6] = test system: A549 NSCLC
# [7] = test system: SF-268 CNS
# [8] = test system: RXF 393 renal
# [9] = test system: SNB-75 CNS
# [10] = test system: OVCAR-3 ovarian
# [11] = test system: KM12 colon
# [12] = test system: NCI-H23 lung
# [13] = test system: IGROV1 ovarian
# [14] = test system: SN12C renal
# [15] = test system: NCI-H226 lung
# [16] = test system: PC-3 prostate
# [17] = test system: SK-MEL-2 melanoma
# [18] = test system: 786-0 renal
# [19] = test system: OVCAR-8 ovarian
# [20] = test system: SF-539 CNS
# [21] = test system: NCI-H522 lung
# [22] = test system: U251 CNS
# [23] = test system: MOLT-4 leukemia
# [24] = test system: OVCAR-4 ovarian
# [25] = test system: CAKI-1 renal
# [26] = test system: HCT-15 colon
# [27] = test system: UACC-257 melanoma
# [28] = test system: HL-60(TB) leukemia
# [29] = test system: SK-MEL-5 melanoma
# [30] = test system: SK-MEL-28 melanoma
# [31] = test system: EKVX NSCLC
# [32] = test system: TK-10 renal
# [33] = test system: DU-145 prostate
# [34] = test system: SW-620 colon
# [35] = test system: M14 melanoma
# [36] = test system: HCT-116 colon
# [37] = test system: HCC-2998 colon
# [38] = test system: CCRF-CEM leukemia
# [39] = test system: SNB-19 CNS
# [40] = test system: MDA-N
# [41] = test system: BT-549 breast
# [42] = test system: COLO 205 colon
# [43] = test system: RPMI-8226 leukemia
# [44] = test system: HOP-62 NSCLC
# [45] = test system: NCI/ADR-RES ovarian
# [46] = test system: MCF7 breast
# [47] = test system: UO-31 renal
# [48] = test system: HOP-92 NSCLC
# [49] = test system: UACC-62 melanoma
# [50] = test system: MDA-MB-435
# [51] = test system: A498 renal
# [52] = test system: LOX IMVI melanoma
# [53] = test system: MDA-MB-231 breast
# [54] = test system: NCI-H460 lung
# [55] = test system: HS 578T breast
# [56] = test system: T-47D breast
# [57] = test system: HT29 colon
# [58] = test system: K-562 leukemia
# [59] = test system: SF-295 CNS
smiles,measurement,setting,value
COc1ccc(C(OCC2OC(n3cnc4c(=O)n(Cc5ccccc5[N+](=O)[O-])nnc43)C(O)C2O)(c2ccccc2)c2ccc(OC)cc2)cc1 (centres undefined),TGI,[1],97.9 µM
same,TGI,[2],8.88 µM
same,TGI,[3],> 100 µM
same,TGI,[4],> 100 µM
same,TGI,[5],49.2 µM
same,TGI,[6],> 100 µM
same,TGI,[7],> 100 µM
same,TGI,[8],> 59.5 µM
same,TGI,[9],> 100 µM
same,TGI,[10],> 62.3 µM
same,TGI,[11],> 92.4 µM
same,TGI,[12],> 90.8 µM
same,TGI,[13],> 71.2 µM
same,TGI,[14],45.7 µM
same,TGI,[15],45.5 µM
same,TGI,[16],> 100 µM
same,TGI,[17],60.6 µM
same,TGI,[18],> 100 µM
same,TGI,[19],> 100 µM
same,TGI,[20],34.1 µM
same,TGI,[21],48.9 µM
same,TGI,[22],> 100 µM
same,TGI,[23],9.57 µM
same,TGI,[24],> 100 µM
same,TGI,[25],> 56.7 µM
same,TGI,[26],91.2 µM
same,TGI,[27],> 100 µM
same,TGI,[28],5.85 µM
same,TGI,[29],> 45.5 µM
same,TGI,[30],69.5 µM
same,TGI,[31],> 100 µM
same,TGI,[32],64.1 µM
same,TGI,[33],> 100 µM
same,TGI,[34],> 100 µM
same,TGI,[35],> 100 µM
same,TGI,[36],13.1 µM
same,TGI,[37],26.9 µM
same,TGI,[38],20.7 µM
same,TGI,[39],> 100 µM
same,TGI,[40],47.6 µM
same,TGI,[41],> 100 µM
same,TGI,[42],34.5 µM
same,TGI,[43],15.7 µM
same,TGI,[44],> 100 µM
same,TGI,[45],> 100 µM
same,TGI,[46],> 100 µM
same,TGI,[47],> 87.4 µM
same,TGI,[48],23.2 µM
same,TGI,[49],38.8 µM
same,TGI,[50],> 91.4 µM
same,TGI,[51],34.5 µM
same,TGI,[52],> 39.4 µM
same,TGI,[53],> 61.8 µM
same,TGI,[54],> 53.1 µM
same,TGI,[55],> 94 µM
same,TGI,[56],> 100 µM
same,TGI,[57],59.1 µM
same,TGI,[58],> 57.4 µM
same,TGI,[59],> 100 µM
